From publication PMC5620620, “Comparison of In Vitro Assays in Selecting Radiotracers for In Vivo P-Glycoprotein PET Imaging” (Pharmaceuticals, 2017)
Values belong to the compound of their own block, whether it stands above or below them.

Key:
[1] = target: T1, P-gp (Homo sapiens, UniProt P08183); assay: Calcein-AM inhibition assay in MDCKII-MDR1 cells; assay type: cell-based; details: non-radioactive compounds
T1 construct: host or cells: MDCKII (canine kidney) cells transfected with human MDR1 cDNA
T1 sequence (P08183 whole entry): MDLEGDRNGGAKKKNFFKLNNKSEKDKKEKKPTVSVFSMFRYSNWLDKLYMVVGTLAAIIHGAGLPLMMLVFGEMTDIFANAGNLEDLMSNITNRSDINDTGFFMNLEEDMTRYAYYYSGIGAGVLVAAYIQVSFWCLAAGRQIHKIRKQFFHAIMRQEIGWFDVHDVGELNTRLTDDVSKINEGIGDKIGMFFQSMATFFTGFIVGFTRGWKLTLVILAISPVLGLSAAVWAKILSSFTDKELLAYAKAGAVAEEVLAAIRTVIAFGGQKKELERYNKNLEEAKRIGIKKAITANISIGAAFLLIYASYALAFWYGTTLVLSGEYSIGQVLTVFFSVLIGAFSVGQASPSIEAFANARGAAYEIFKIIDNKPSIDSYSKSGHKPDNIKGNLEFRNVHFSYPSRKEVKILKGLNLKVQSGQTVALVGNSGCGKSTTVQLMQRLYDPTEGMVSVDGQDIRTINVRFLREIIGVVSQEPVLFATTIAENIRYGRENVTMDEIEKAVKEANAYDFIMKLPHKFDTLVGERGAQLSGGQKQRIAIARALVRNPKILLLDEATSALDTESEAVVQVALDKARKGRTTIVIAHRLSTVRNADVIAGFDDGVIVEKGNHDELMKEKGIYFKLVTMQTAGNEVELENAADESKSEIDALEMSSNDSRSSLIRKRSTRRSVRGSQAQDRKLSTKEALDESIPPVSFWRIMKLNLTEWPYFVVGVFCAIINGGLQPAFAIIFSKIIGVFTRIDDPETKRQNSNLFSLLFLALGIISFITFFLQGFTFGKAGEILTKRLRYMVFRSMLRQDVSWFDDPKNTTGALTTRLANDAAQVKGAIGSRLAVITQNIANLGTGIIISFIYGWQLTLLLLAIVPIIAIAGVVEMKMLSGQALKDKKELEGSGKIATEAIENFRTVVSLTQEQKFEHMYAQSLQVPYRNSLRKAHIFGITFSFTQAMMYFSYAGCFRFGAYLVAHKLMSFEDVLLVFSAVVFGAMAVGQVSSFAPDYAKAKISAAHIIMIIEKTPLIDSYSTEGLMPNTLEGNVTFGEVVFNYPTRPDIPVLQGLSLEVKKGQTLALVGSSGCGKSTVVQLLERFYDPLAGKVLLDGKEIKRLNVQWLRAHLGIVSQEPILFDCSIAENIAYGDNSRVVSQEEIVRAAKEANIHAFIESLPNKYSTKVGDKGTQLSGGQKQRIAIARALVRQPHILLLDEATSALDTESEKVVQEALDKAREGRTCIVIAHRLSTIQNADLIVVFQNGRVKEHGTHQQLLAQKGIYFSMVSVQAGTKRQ
Method: The calcein-AM experiment was performed in MDCKII-MDR1 cells according to methods described previously. Calcein cell accumulation in the absence and in the presence of test compounds (0,1, 1, 10, 30, 50 and 100 µM) was evaluated and the basal level of fluorescence was measured in untreated cells. EC50 values were determined by fitting the fluorescence increase (in %) versus log[dose].

[2] = tested on: P-gp and/or Bcrp; assay: Brain uptake (microPET, biodistribution) in Mdr1a/b(−/−)Bcrp1(−/−) knockout versus wild-type mice; assay type: in vivo; details: Mdr1a/b(−/−)Bcrp1(−/−) vs wild-type mice; for Difference in whole brain time-activity curves (SUV) between knockout and wild-type: AUC from 0 to 30 min; for P-gp substrate behaviour in vivo: tracer concentrations
Source text: All animal studies were in compliance with the local ethical guidelines. Protocols (DEC 6456C) were approved by the Institutional Animal Care and Use Committee of the University of Groningen. Male FVB wild type mice (33 ± 2 g, 11–12 weeks) and Mdr1a/b^(−/−)Bcrp1^(−/−) constitutive knockout mice (31 ± 3 g, 11–12 weeks) developed from the FVB line were purchased from Taconic (Hudson, NY, USA). After arrival, animals were housed individually and acclimatized for at least 7 days in the Central Animal Facility of the University Medical Center Groningen before experiments. Mice had access to food and water ad libitum and were kept under a 12 h light-dark cycle. During experiments, mice were anesthetized with 2% isoflurane in medical air and kept at a constant temperature using electronically controlled heating pads.
(§1) Mice were injected with radiotracers (3.5 ± 1.6 MBq, 0.1 mL, [^18F]MC198 or [^18F]KE64) in the penile vein under isoflurane anesthesia. Injections were performed with the mice in the microPET camera (microPET Focus 220, Siemens Medical Solutions, Malvern, PA, USA), simultaneously starting a 30 min dynamic emission scan. After each emission scan, a transmission scan of 515 s with a ^57Co point source was performed to correct the emission data for attenuation and scatter. Mice were terminated by cervical dislocation. Several organs and tissues were excised, weighed and radioactivity was measured in a γ-counter (LKB Wallac, Turku, Finland). Radioactivity accumulation in the organs was expressed as SUV, using the following formula: [tissue activity concentration (MBq/g)]/[injected dose (MBq)/body weight (g)]. Metabolites in the terminal plasma and brain samples were determined using a radio-TLC method described elsewhere. TLC-plates were eluted with ethylacetate/methanol 9:1 v/v (Rf [^18F]MC198 = 0.45, Rf[^18F]KE64 = 0.62). PET data were reconstructed as described previously. Inveon Research Workplace software version 4.0 (Siemens, Erlangen, Germany) was used for data analysis. All frames were summed, and PET images were co-registered with an MRI template. A whole brain volume of interest (VOI) based on the MRI template was generated. Radioactivity concentrations were converted to SUV values and plotted as time-activity curves (TAC).

[3] = target: T1, P-gp; assay: Bidirectional transport of tritiated compounds in MDCKII-MDR1 cells; assay type: in vitro ADME; details: for Substrate In Vitro: ER 0.01 µM; for P-gp substrate behaviour in vitro: concentrations 0.01-50 µM and inhibitors; for ER 0.01 µM: tritiated compound 0.01 µM, Papp B→A/Papp A→B; for Recovery of radioactivity: all experiments, A → B and B → A directions
Method: (§2) Madin-Darby canine kidney (MDCK) II cells expressing cDNAs encoding human MDR1 (MDCKII-MDR1 cells) were obtained by TNO from the Netherlands Cancer Institute. […] Cells were counted using an automatic cell counter (Millipore, Bedford, MA, USA). […] The medium was refreshed after 48 h. It has been shown, that under these conditions the human transporter protein MDR1 localizes on the apical plasma membrane of the cells.
(§3) After three days of cell culture on Transwell, the MDCKII-MDR1 monolayers are expected to have developed a transepithelial electrical resistance (TEER) of approximately 70 Ωcm^2 higher than background (empty filter without cells). At the start of each study, TEER was measured to assess the integrity of the monolayers of MDCKII-MDR1 cells in culture medium using the Millicell-ERS epithelial voltohmmeter (Millipore). Monolayers with a TEER value less than 55 Ωcm^2 above background (empty filter) were excluded from the transport assay. […] Cell monolayers were also inspected with a microscope before starting the experiments.
(§4) Transcellular transport studies were performed as described previously with minor modifications.
(§5) After the integrity assessment, culture medium was removed from the filter inserts (apical compartment (A)). The inserts were washed once with warm (37 °C) HBSS, transferred to new 12-well plates which were preincubated with HBSS/HEPES for 18 h at 37 °C, to reduce non-specific binding to the plastic, and washed with warm HBSS. The MDR1-mediated apical to basolateral (A → B) transport in MDCKII-MDR1 cell monolayers was determined by addition of 0.65 mL of a tritiated compound in concentrations of 0.01, 1 and 50 µM to the apical compartment in triplicate. A volume of 1.8 mL of HBSS/HEPES was added to the basolateral compartment. To determine basolateral to apical (B → A) transport, 1.95 mL of a tritiated compound at concentrations of 0.01, 1 and 50 µM was added to the basolateral compartment and 0.5 ml of HBSS/HEPES to the apical compartment. A 150 µL aliquot of the apical (A → B) or basolateral (B → A) compartment was taken at the start of the experiment to measure the initial concentration and to calculate the recovery of radioactivity. […] Aliquots of the apical and basolateral samples (150 and 1600 µL for A → B and 400 and 150 µL for B → A, respectively) and samples of the initial concentration were mixed with 10 mL of liquid scintillant Ultima GoldTM (PerkinElmer Inc.). Radioactivity was determined by LSC on a Tri Carb 3100TR liquid scintillation counter using QuantaSmart^TM software (PerkinElmer Inc.) in which all counts were converted to disintegrations per minute (DPM) using tSIE/AEC (transformed spectral index of external standards coupled to automatic efficiency correction). Background values were measured for each sample sequence using liquid scintillant without test samples. Recovery of radioactivity was calculated as percentage of measured total radioactivity after the experiment versus initial radioactivity.
(§6) Subsequently, the effects of MDR1-inhibitors ketoconazole and tariquidar on the bidirectional transport of the tested tritiated compounds were examined. Stock solutions of the inhibitors ketoconazole (10 mM) and tariquidar (10 mM) were prepared in DMSO. […] These concentrations were based on IC50 values that are known to block P-gp completely.
(§7) A is the surface area of the filter insert (cm^2) and C0 the measured initial concentration, calculated from total DPM on the donor side at t = 0 min (DPM/L).
(§8) To determine the ER for the test compounds, the following equation was used:ER = Papp B → A/Papp A → B(2)

[4] = target: T2, P-gp (MDR1) (Homo sapiens, UniProt P08183); assay: as above; assay type: in vitro ADME; details: MDCK-MDR1; for efflux ratio at 2 h, 1 µM / efflux ratio at 2 h, 50 µM: read-out: ER; for efflux ratio at 2 h, 0.01 µM: human, read-out: ER 0.01 µM
T2 construct: host or cells: MDCKII (canine kidney) cells transfected with human MDR1 cDNA
T2 sequence (P08183 whole entry): as above
Method: as §2, §3, §4, §5, §6, §7, §8

[5] = tested on: P-gp; assay: In vivo P-gp substrate classification from knockout mice and/or tariquidar-treated rats; details: for Substrate In Vivo: brain-to-plasma or AUC ratio in at least one strain; for P-gp substrate classification in vivo: cutoff value of 2 for brain-to-plasma and AUC ratios
[6] = Log D7.4; assay type: physicochemical; details: pH 7.4, this study
[7] = Radioactive metabolites in plasma and brain by radio-TLC; assay type: in vivo; details: mice, 45 min p.i.
Method: as §1, with “A whole brain volume of interest (VOI) based on the MRI template was generated.” left out

[8] = tested on: T3, P-gp (human MDR1); assay: Bidirectional transport of tritiated compounds in MDCKII-MDR1 cells; assay type: in vitro ADME; details: dog, MDCK-MDR1
T3 construct: host or cells: MDCKII (canine kidney) cells transfected with human MDR1 cDNA

[9] = after 5 min; cited from earlier work
[10] = design: method as in PMID 26043236; details: pH 7.4; cited from earlier work

SMILES: COc1cc2c(cc1OC)CN(CC/C=C1\CCCc3c(OCCF)cccc31)CC2 [MC198, (E)-2-(3-(5-(2-Fluoroethoxy)-3,4-dihydronaphthalen-1(2H)-ylidene)propyl)-6,7-dimethoxy-1,2,3,4-tetra-hydroisoquinoline]
EC50 [1]: 270 nM
Difference in whole brain time-activity curves (SUV) between knockout and wild-type [2]: 1.7 fold
P-gp substrate behaviour in vivo [2]: substrates for P-gp and/or Bcrp in vivo
Substrate In Vitro ([3]; MDCKII-MDR1 cells): + (Definition as substrate (+) in vitro was ER > 2)
P-gp substrate behaviour in vitro ([3]; MDCKII-MDR1 cells): some affinity but very low capacity for P-gp mediated transport
ER 0.01 µM ([3]; MDCKII-MDR1 cells): above 2
efflux ratio at 2 h, 1 µM ([4]; dog, MDCKII-MDR1 cells, 1 µM): < 2
efflux ratio at 2 h, 50 µM ([4]; dog, MDCKII-MDR1 cells): < 2
efflux ratio at 2 h, 0.01 µM [4]: 2.1
Substrate In Vivo [5]: + (in vivo brain-to-plasma or AUC ratio > 2 in at least one strain)
P-gp substrate classification in vivo [5]: weak substrates
logD [6]: 2.3
Fraction of intact parent compound in plasma [7]: 34%

SMILES: COc1cc2c(cc1OC)CN(CCCCOc1ccc(-c3ccc(OCCF)cc3)cc1)CC2 [KE64, 2-(4-(4′-(2-Fluoroethoxy)biphenyl-4-yloxy)butyl)-6,7-dimethoxy-1,2,3,4-tetrahydroisoquinoline]
EC50 [1]: 14 nM
Difference in whole brain time-activity curves (SUV) between knockout and wild-type [2]: 1.6 fold
P-gp substrate behaviour in vivo [2]: moderate P-gp substrate in vivo
P-gp substrate behaviour in vivo ([2]; listed as [^18F]KE64): substrates for P-gp and/or Bcrp in vivo
Papp values in both directions (A → B and B → A) ([3]; MDCKII-MDR1 cells, all Papp values): < 3 ×10⁻⁶ cm/s
efflux ratio at 2 h, 0.01 µM [4]: 1.9
Substrate In Vivo [5]: + (in vivo brain-to-plasma or AUC ratio > 2 in at least one strain)
P-gp substrate classification in vivo [5]: weak substrates
logD [6]: 3.2
Fraction of intact parent compound in plasma [7]: 26%

SMILES: COc1cc2c(cc1OC)CN(CCCC1CCCc3c(OCCF)cccc31)CC2 (stereo not shown) [MC225]
Log D7.4 [10]: 3.0
Substrate In Vivo [5]: + (in vivo brain-to-plasma or AUC ratio > 2 in at least one strain)

SMILES: COc1ccc(CCN(CCF)CCC[C@](C#N)(c2ccc(OC)c(OC)c2)C(C)C)cc1OC [N-FeVer, (R)-N-[^18F]fluoroethylverapamil]
Parent compound, of total activity in plasma [9]: 46%
Log D7.4 [10]: 2.0
EC50 [1]: 1100 nM
Substrate In Vitro ([3]; MDCKII-MDR1 cells): + (Definition as substrate (+) in vitro was ER > 2)
Recovery of radioactivity [3]: ≥ 76%
efflux ratio at 2 h, 0.01 µM [4]: 2.8
Substrate In Vivo [5]: + (in vivo brain-to-plasma or AUC ratio > 2 in at least one strain)

SMILES: COc1cc2c(cc1OC)CN(Cc1ccc(-c3ccc(OCCF)cc3)cc1)CC2 [MC224]
Log D7.4 [10]: 2.9

Now from value to compound, other results behind:

Papp A→B at 2 h, 0.05 µM [8]: < 1 ×10⁻⁶ cm/s
Papp B→A at 2 h, 0.05 µM [8]: > 15 ×10⁻⁶ cm/s
SMILES: C[C@H]1O[C@@H](O[C@H]2[C@@H](O)C[C@H](O[C@H]3[C@@H](O)C[C@H](O[C@H]4CC[C@@]5(C)[C@H](CC[C@@H]6[C@@H]5C[C@@H](O)[C@]5(C)[C@@H](C7=CC(=O)OC7)CC[C@]65O)C4)O[C@@H]3C)O[C@@H]2C)C[C@H](O)[C@@H]1O [[^3H]Digoxin, digoxin]

EC50 [1]: 2400 nM
ER after inhibition with ketoconazole ([3]; MDCKII-MDR1 cells, 0.01 µM + ketoconazole 25 µM): higher than 2
P-gp substrate behaviour in vitro ([3]; MDCKII-MDR1 cells): behaved like a P-gp substrate
ER 0.01 µM ([3]; MDCKII-MDR1 cells): > 30
Recovery of radioactivity [3]: ≥ 76%
Papp A→B at 2 h, 0.01 µM ([4]; dog, MDCKII-MDR1 cells, 0.01 µM): < 2 ×10⁻⁶ cm/s
Papp A→B at 2 h, 1 µM ([4]; dog, MDCKII-MDR1 cells, 1 µM): < 2 ×10⁻⁶ cm/s
efflux ratio at 2 h, 1 µM ([4]; dog, MDCKII-MDR1 cells, 1 µM): > 30
efflux ratio at 2 h, 50 µM ([4]; dog, MDCKII-MDR1 cells): > 2
efflux ratio at 2 h, 0.01 µM [4]: 37
SMILES: COc1ccc([C@@](C#N)(CCCNCCc2ccc(OCCF)c(OC)c2)C(C)C)cc1OC [O-FeVer, (R)-O-[^18F]fluoroethylnorverapamil]
Parent compound, of total activity in plasma [9]: 20%
Log D7.4 [10]: 1.6
Substrate In Vitro ([3]; MDCKII-MDR1 cells): + (Definition as substrate (+) in vitro was ER > 2)
Substrate In Vivo [5]: + (in vivo brain-to-plasma or AUC ratio > 2 in at least one strain)
